Tested on: acetylcholinesterase
Assay: acetylcholine decomposition by acetylcholinesterase in a mixed system, monitored as pH change rate
Type: biochemical
Settings: addition of limonene to the mixed system of acetylcholine and acetylcholinesterase; FIG. 3
Description: The reaction of the above formula (1) is a chemical reaction in which acetylcholine acts as a substrate and acetylcholinesterase acts as an enzyme. In general, it is known that a chemical reaction using an enzyme is inhibited by a specific chemical substance for each enzyme, and the reaction rate is reduced or the reaction is stopped. The chemical substance is hereinafter referred to as an “inhibitor”. Here, in the mixed system of acetylcholinesterase and acetylcholine shown in FIG. 2A, when the inhibitor starts to be contained from time t, the cumulative amount of acetylcholine decomposition product after time t changes, that is, the slope of the graph decreases (see FIG. 2B). Therefore, by monitoring the decomposition rate of acetylcholine in the mixed system, it is possible to detect whether or not an inhibitor is present in the mixed system.
The target substance to be detected by the sensor according to the present embodiment is an inhibitor against the acetylcholine decomposition reaction of acetylcholinesterase. Examples of this inhibitor include limonene. […] Examples of the inhibitor other than limonene against the acetylcholine decomposition reaction of acetylcholinesterase include terpenoids such as ambrein and pinene, flavonoids such as luteolin, alkaloids such as galantamine, and glycosides such as Cynatroside A.

In the case of `C=C(C)[C@H]1CC=C(C)CC1` [limonene], the “effect on the pH change rate of the mixed system of acetylcholine and acetylcholinesterase (inhibitory effect on the acetylcholine decomposition reaction)” value is reported as “reduces the pH change rate of the mixed system”.

Reference: patent US11859235B2, “Sensor, detection method, reagent and kit” (priority 2020, dated 2024)
